Usually LD50 stands for the dose at which mortality reaches 50%.

One data set deals with Locusta M. Put plainly: Activity on Locusta M. Particulars: in vivo.
For another data set, the system named is Meloidogyne icognita. The experiment in a line: Biological activity on Meloidogyne icognita (Nematoda). The class given is in vivo. The following applies: 20 ppm; Table 4. The method, then:
(8) Biological activity on Meloidogyne icognita (Nematoda)
A 1:1 mixture of field soil and sand, infested with newborne larvae and eggs of Nematoda, were treated, by uniform admixing, with an aqueous dispersion of the products under examination (see Tables 4 and 5). The soil was then distributed into plastic pots, and after 5 days in each pot there were planted 5 small tomato plants about 20 cm high.
The results were recorded 21 days after the transplanting.
The nematocidal activity was expressed as the percentage reduction of infestation with respect to the witness (small plants transplanted into a non-treated soil, activity=0).

The subject of a further data set is Tetranychus urticae. The experiment in a line: Biological activity on adults of Tetranychus urticae (Acari). The class given is in vivo. The following applies: for mortality at 0.0005 %: 24 h, 0,005%o. The protocol:
(5) Biological activity on adults of Tetranychus urticae (Acari)
Discs of bean leaves were infested with adult acari and then sprinkled with an aqueous dispersion of the products under examination (see Tables 4 and 5).
The mortality percentage was determined after 24 hours from treatment (untreated leaf discs, mortality=0).

The subject of the next data set is Culex pipiens. Put plainly: Biological activity on Culex pipiens larvae (Diptera). The class given is in vivo. The following applies: for mortality at 0.2 ppm: 24 h, 0,2 ppm. The method, then: (4) Biological activity on Culex pipiens (Diptera)
Into glasses containing an aqueous dispersion of the products under examination (see Tables 4 and 5) there were introduced mosquito larvae of third and fourth age.
The mortality percentage of the larvae (glasses containing pure water=0) was determined after 24 hours from treatment.

In data set [1] the test system is Leptinotarsa decemlineata. Put plainly: Biological activity on Leptinotarsa decemlineata (Coleoptera). The class given is in vivo. The following applies: for mortality at 0.01 %: 48 h, 0,1%o. The protocol:
(3) Biological activity on Leptinotarsa decemlineata (Coleoptera)
Small potato plants grown in pots were infested with 4-day old larvae, and were then sprinkled with an aqueous dispersion of the products under examination (see Tables 4 and 5).
The mortality percentage (untreated small plants=0) was determined after 48 hours from treatment.

The subject of a further data set is Hilemyia brassicae. The experiment in a line: Biological activity on Hilemyia brassicae (Diptera). The class given is in vivo. The following applies: Table 4. The method, then: (9) Biological activity on Hilemyia brassicae (Diptera)
Samples of soil were treated by uniform mixing with an aqueous dispersion of the products under examination (see Tables 4 and 5). The soil was then divided into two pots and in each of these 4 small radish plants were transplanted. The plants were subsequently infected by putting to the soil 50 Diptera eggs in the middle of the surface of the pots.
The results were recorded 10 days after treatment by extracting the plants from the soil and by counting the number of larvae present on the roots and on the surrounding soil.
The insecticidal activity was expressed as percentage of reduction of the infestation in comparison with the witness plants (plants transplanted into untreated soil, activity=0).

In the next data set the test system is Blatta orientalis. The experiment in a line: Biological activity on Blatta orientalis (Ortoptera). The class given is in vivo. The following applies: for % ge of activity, Blatta o.: Table 4, 2880 min; for mortality at 0.01 g/m2 / mortality at 1 g/m2: Blatta orientalis, 48 h, read-out: Activity (mortality class), Blatta O. In a few lines: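 Ten neanides aged 80-100 days were exposed to glass crystallizer surfaces coated with acetone solution of compound for 24 h, then moved to untreated containers and fed. Mortality (untreated = 0) was scored 48 h after treatment began.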

Another data set has as its system Spodoptera littoralis. Put plainly: Biological activity on Spodoptera littoralis (Lepidoptera). The class given is in vivo. Particulars: for mortality at 0.01 %: 48 h, 0,1%o. The protocol: (7) Biological activity on Spodoptera littoralis (Lepidoptera)
Cut tobacco leaves were sprinkled with an aqueous dispersion of the products under examination (see Tables 4 and 5).
After drying, the leaves were infested with 5-day old larvae.
The percentage of mortality of the larvae was determined after 48 hours from treatment (untreated leaves, mortality=0).

The test system of another data set is warm-blooded animals. Put plainly: Toxicity toward warm-blooded animals / mammals. The class given is in vivo.
The subject of another data set is Pieris brassicae. The experiment in a line: Biological activity on Pieris brassicae (Lepidoptera). The class given is in vivo. Particulars: 48 h. The protocol:
(2) Biological activity on Pieris brassicae (Lepidotera)
Cut-off cauliflower leaves were sprinkled with an aqueous dispersion of the products under examination (see TABLE 5).
After drying, the leaves were infested with 5-day old larvae. The percentage of mortality of the larvae (untreated leaves=0) was determined after 48 hours from treatment.

The nature of data set [2]: Toxicity on albino rats by oral administration. Particulars: rat, in vivo.
In data set [3] the test system is orthoptera, lepidoptera, coleoptera, diptera, nematoda and acari. The experiment in a line: Comparison of the insecticidal, acaricidal and nematocidal activities. The following applies: M 8174 vs M 8172 (Table 4); Tables 4 and 5. The class given is in vivo. The source says: Of this material (M 8172) we have estimated the effects on various arthropods at decreasing doses, together with effects shown by a representative compound of the class described by us in this invention (M 8174).

[4] abbreviates: 24 h, 0,01%o, Table 4, read-out: % ge of activity, Tetranycus u. (ad.).
The mark [5] stands for this setting: Table 4, read-out: % ge of activity, Tetranycus u. (ad.).
The mark [6] stands for this setting: 24 h, read-out: Activity (mortality class), Tetranychus U. (adults).
[7] abbreviates: 24 h, 0,02 ppm, Table 4, read-out: % ge of activity, Culex p.
Where [8] appears, read: Table 4, read-out: % ge of activity, Culex p.
[9] abbreviates: Table 4, read-out: % ge of activity, Leptinotarsa d.
Setting [10] is: 48 h, 0,05%o, Table 4, read-out: % ge of activity, Leptinotarsa d.
[11] abbreviates: 48 h, read-out: Activity (mortality class), Leptinotarsa D.
The mark [12] stands for this setting: Table 4, read-out: % ge of activity, Spodoptera l.
Setting [13] is: 48 h, 0,05%o, Table 4, read-out: % ge of activity, Spodoptera l.
The mark [14] stands for this setting: 48 h, read-out: Activity (mortality class), Spodoptera L.
Setting [15] is: 0.01%o, Table 5, read-out: Activity (mortality class), Pieris B.
The mark [16] stands for this setting: 24 h, 0.01%o, Table 5, read-out: Activity (mortality class), Tetranychus U. (adults).
Where [17] appears, read: 24 h, 1%o, Table 5, read-out: Activity (mortality class), Tetranychus U. (adults).
[18] abbreviates: 24 h, 0.02 ppm, Table 5, read-out: Activity (mortality class), Culex P. (larvae).
The mark [19] stands for this setting: 24 h, Table 5, read-out: Activity (mortality class), Culex P. (larvae).
[20] abbreviates: 48 h, 0.05%o, Table 5, read-out: Activity (mortality class), Leptinotarsa D.
Setting [21] is: 48 h, 1%o, Table 5, read-out: Activity (mortality class), Leptinotarsa D.
Where [22] appears, read: 48 h, 1%o, Table 5, read-out: Activity (mortality class), Spodoptera L.
[23] abbreviates: 1%o, Table 5, read-out: Activity (mortality class), Pieris B.
Where [24] appears, read: read-out: Activity (mortality class), Pieris B.

Like-named read-outs stand apart in the source and are kept apart here.

On to `CCOP(=S)(OCC)Oc1nc(-c2ccccc2)nn1C` [M 8172, 0,0-diethyl-0-[1-methyl-3-phenyl-1,2,4-triazolyl(5)]-thiophosphate, reference compound], for which, in the data set on Locusta M., the “Activity (mortality class), Locusta M.” value is “+ (70-99% of mort.)”. The “% ge of activity, Meloidogyne i.” value in the data set with Meloidogyne icognita is recorded as 40%. Besides, the mortality at 0.001 % was 96% in the data set with Tetranychus urticae (setting [4]), 70 to 99% in the data set on Tetranychus urticae (setting [6]) and 0 to 9% in the data set with Pieris brassicae (setting [15]). In addition, in the data set with Tetranychus urticae (setting [5]), the mortality at 0.0005 % came out at 76%. Besides, the mortality at 0.02 ppm was 0% in the data set with Culex pipiens (setting [7]) and 0 to 9% with Culex pipiens (24 h, read-out: Activity (mortality class), Culex P. (larvae)). In addition, in the data set with Culex pipiens (setting [8]), the mortality at 0.2 ppm worked out at 100%. Moreover, the mortality at 0.01 % in data set [1] (setting [9]) is 92%; with Spodoptera littoralis (setting [12]) it was 100%. Further, the mortality at 0.005 % was 10% in data set [1] (setting [10]), 10 to 69% in [1] (setting [11]), 15% in the data set with Spodoptera littoralis (setting [13]) and 10 to 69% in the data set with Spodoptera littoralis (setting [14]). Moreover, the “% ge of activity, Hylemyia b.” value in the data set on Hilemyia brassicae (2 ppm) worked out at 48%; in the data set on Hilemyia brassicae (10 ppm), 98%. The figures for the “% ge of activity, Blatta o.” value in the data set with Blatta orientalis (0,01 g/m^2) and in the data set with Blatta orientalis (0,1 g/m^2) were 20% and 100%, respectively. For the same compound, in the data set on Blatta orientalis (0,01 g/m^2, Table 5), the mortality at 0.01 g/m2 fell in the range of 10 to 69%. Moreover, the toxicity in words result with warm-blooded animals was “low toxicity towards mammals”.
As to `CCOP(=S)(OCC)Oc1nc(C(C)=C(Cl)Cl)nn1C` [M 8550], the mortality at 0.001 % was 10 to 69% in the data set with Tetranychus urticae (setting [16]) and 100% in the data set on Pieris brassicae (setting [15]). Besides, the mortality at 0.1 % (with Tetranychus urticae (setting [17]); in data set [1] (setting [21]); in the data set on Spodoptera littoralis (setting [22]); with Pieris brassicae (setting [23])) was 100% in each case. In the data set with Culex pipiens (setting [18]), the mortality at 0.02 ppm was 70 to 99%. Moreover, the mortality at 2 ppm in the data set on Culex pipiens (setting [19]) came out at 100%. In addition, the LD50 in data set [2] was 1700 mg/kg. Further, the mortality at 0.005 % in [1] (setting [20]) was determined as 100%. In the data set on Blatta orientalis (0,01 g/m^2, Table 5), the mortality at 0.01 g/m2 lay in the range of 10 to 69%. Moreover, the mortality at 1 g/m2 in the data set on Blatta orientalis (1 g/m^2, Table 5) was determined as 100%.
Take `CCOP(=S)(OCC)Oc1nc(C=C(Cl)Cl)nn1C` [M 8174]: the “% ge of activity, Meloidogyne i.” value in the data set with Meloidogyne icognita is recorded as 100%. Further, the activity in words entry in data set [3] was “significantly better activity”. Also, the mortality at 0.001 % in the data set on Tetranychus urticae (setting [4]), with Tetranychus urticae (setting [16]) and with Pieris brassicae (setting [15]) was 100% in each case. Moreover, the mortality at 0.1 % (in the data set on Tetranychus urticae (setting [17]); in [1] (setting [21]); in the data set on Spodoptera littoralis (setting [22]); in the data set with Pieris brassicae (setting [23])) was 100% each time. The mortality at 0.0005 % in the data set on Tetranychus urticae (setting [5]) is 100%. Moreover, the mortality at 0.02 ppm in the data set with Culex pipiens (setting [7]) and with Culex pipiens (setting [18]) was 100% each time. Further, in the data set with Culex pipiens (setting [8]), the mortality at 0.2 ppm amounted to 100%. Further, the mortality at 2 ppm with Culex pipiens (setting [19]) was 100%. The compound further registered an LD50 in data set [2] of 1600 mg/kg. In addition, the mortality at 0.01 % (in [1] (setting [9]); with Spodoptera littoralis (setting [12])) was 100% in each case. Besides, the mortality at 0.005 % in data set [1] (setting [10]) was 100%; in data set [1] (setting [20]), 100%; with Spodoptera littoralis (setting [13]), 90%; in the data set with Spodoptera littoralis (48 h, 0.05%o, Table 5, read-out: Activity (mortality class), Spodoptera L.), 100%. Also, the “% ge of activity, Hylemyia b.” value in the data set with Hilemyia brassicae (2 ppm) and in the data set on Hilemyia brassicae (10 ppm) was 100% throughout. Further, the “% ge of activity, Blatta o.” value in the data set on Blatta orientalis (0,01 g/m^2) and in the data set with Blatta orientalis (0,1 g/m^2) was 100% each time. Further, in the data set on Blatta orientalis (0,01 g/m^2, Table 5), the mortality at 0.01 g/m2 turned out to be 100%. In addition, in the data set with Blatta orientalis (1 g/m^2, Table 5), the mortality at 1 g/m2 is 100%.
`CCOP(=S)(OCC)Oc1nc(C(Cl)=C(Cl)Cl)nn1C` [M 8560]: the mortality at 0.001 % with Tetranychus urticae (setting [16]) is 100%; in the data set on Pieris brassicae (setting [24]) it was 70 to 99%. Moreover, the mortality at 0.1 % (in the data set on Tetranychus urticae (setting [6]); in data set [1] (setting [11]); with Spodoptera littoralis (setting [14]); in the data set with Pieris brassicae (setting [24])) was 100% throughout. Moreover, the mortality at 0.02 ppm in the data set on Culex pipiens (setting [18]) is 10 to 69%. The mortality at 2 ppm in the data set on Culex pipiens (setting [19]) was found to be 100%. Further, the 50% lethal dose (LD50) in data set [2] stood at 1200 mg/kg. The mortality at 0.005 % in data set [1] (setting [11]) was 100%; in the data set with Spodoptera littoralis (setting [14]), 70 to 99%. In the data set on Blatta orientalis, the mortality at 1 g/m2 amounted to 100%.
For the compound `CC=C(Br)c1nc(OP(=S)(OCC)OCC)n(C)n1` [M 8549], the mortality at 0.001 % in the data set on Tetranychus urticae (setting [16]) and with Pieris brassicae (setting [15]) was 10 to 69% throughout. Moreover, the mortality at 0.1 % (in the data set on Tetranychus urticae (setting [17]); in [1] (setting [21]); in the data set with Spodoptera littoralis (setting [22]); with Pieris brassicae (setting [23])) was 100% throughout. For the same compound, the mortality at 2 ppm in the data set on Culex pipiens (setting [19]) was 100%. The same compound returned a 50% lethal dose (LD50) in data set [2] of 1000 mg/kg. In data set [1] (setting [20]), the mortality at 0.005 % amounted to 100%. Moreover, in the data set with Blatta orientalis (1 g/m^2, Table 5), the mortality at 1 g/m2 was determined as 100%.

Values taken from patent US4400517A, “Phosphoric esters derived from 1,2,4-triazole having an insecticidal, nematocidal and acaricidal action, and their preparation” (priority 1976, dated 1983).
